The values below come from PMC8617627, “Novel DYRK1A Inhibitor Rescues Learning and Memory Deficits in a Mouse Model of Down Syndrome” (Pharmaceuticals, 2021).

Where two headings read alike, the source gives them in different places.

Common to all, as to assay: Kinase profile (33P ATP filter binding)
What all share (type): biochemical

The target in one experiment is MPSK1 (Homo sapiens, UniProt O75716). To be noted: read-out: Remaining protein kinase activity.
The target in a further experiment is PRK2 (Homo sapiens, UniProt Q16513). To be noted: read-out: Remaining protein kinase activity.
Sequence of PRK2 (Q16513 whole entry, species assumed): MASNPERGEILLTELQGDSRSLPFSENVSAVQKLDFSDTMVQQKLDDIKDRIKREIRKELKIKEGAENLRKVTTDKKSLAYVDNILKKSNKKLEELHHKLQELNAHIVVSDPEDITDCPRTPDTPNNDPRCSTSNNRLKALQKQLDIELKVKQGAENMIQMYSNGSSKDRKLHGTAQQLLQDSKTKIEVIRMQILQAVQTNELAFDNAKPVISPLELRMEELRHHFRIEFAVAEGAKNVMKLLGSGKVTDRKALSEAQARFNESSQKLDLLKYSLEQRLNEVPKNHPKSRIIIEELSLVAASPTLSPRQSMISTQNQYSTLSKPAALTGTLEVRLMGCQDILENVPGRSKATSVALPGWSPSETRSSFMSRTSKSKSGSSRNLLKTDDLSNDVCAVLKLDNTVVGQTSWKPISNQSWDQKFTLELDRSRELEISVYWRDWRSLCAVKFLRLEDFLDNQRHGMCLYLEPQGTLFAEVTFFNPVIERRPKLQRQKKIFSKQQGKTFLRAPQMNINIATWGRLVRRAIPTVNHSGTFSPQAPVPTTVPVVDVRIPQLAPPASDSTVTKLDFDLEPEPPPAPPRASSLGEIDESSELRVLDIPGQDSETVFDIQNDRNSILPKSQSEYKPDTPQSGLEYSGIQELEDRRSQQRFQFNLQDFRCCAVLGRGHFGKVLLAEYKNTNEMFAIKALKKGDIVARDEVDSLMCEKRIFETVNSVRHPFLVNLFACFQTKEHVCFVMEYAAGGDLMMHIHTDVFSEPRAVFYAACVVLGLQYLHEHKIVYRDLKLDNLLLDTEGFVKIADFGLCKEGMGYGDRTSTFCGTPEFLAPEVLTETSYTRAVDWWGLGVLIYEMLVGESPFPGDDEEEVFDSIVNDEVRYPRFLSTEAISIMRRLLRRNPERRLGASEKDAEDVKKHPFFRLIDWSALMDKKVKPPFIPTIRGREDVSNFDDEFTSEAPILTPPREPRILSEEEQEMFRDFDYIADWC
The next experiment concerns the target S6K1 (Homo sapiens, UniProt P23443). To be noted: read-out: Remaining protein kinase activity.
A further experiment deals with T1, PRAK (Homo sapiens, UniProt Q8IW41).
T1 sequence (Q8IW41 1-473): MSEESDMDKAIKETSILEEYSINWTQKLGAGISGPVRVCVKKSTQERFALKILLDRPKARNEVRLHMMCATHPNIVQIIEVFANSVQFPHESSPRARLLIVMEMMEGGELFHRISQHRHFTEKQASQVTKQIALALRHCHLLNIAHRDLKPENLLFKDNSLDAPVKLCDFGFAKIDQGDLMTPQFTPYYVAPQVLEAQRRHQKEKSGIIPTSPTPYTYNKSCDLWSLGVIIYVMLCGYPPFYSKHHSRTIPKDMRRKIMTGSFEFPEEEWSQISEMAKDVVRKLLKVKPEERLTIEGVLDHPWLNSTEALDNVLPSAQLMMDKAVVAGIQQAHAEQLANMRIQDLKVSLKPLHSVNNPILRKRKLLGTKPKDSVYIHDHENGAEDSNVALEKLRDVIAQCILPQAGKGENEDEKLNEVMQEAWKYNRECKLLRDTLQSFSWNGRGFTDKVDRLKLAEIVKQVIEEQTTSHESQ
To be noted: read-out: Remaining protein kinase activity.

Another experiment has as its target PAK6 (Homo sapiens, UniProt Q9NQU5). To be noted: read-out: Remaining protein kinase activity.
A further experiment addresses T2, TAK1 (Homo sapiens, UniProt O43318).
T2 sequence (O43318 1-303 limits assumed): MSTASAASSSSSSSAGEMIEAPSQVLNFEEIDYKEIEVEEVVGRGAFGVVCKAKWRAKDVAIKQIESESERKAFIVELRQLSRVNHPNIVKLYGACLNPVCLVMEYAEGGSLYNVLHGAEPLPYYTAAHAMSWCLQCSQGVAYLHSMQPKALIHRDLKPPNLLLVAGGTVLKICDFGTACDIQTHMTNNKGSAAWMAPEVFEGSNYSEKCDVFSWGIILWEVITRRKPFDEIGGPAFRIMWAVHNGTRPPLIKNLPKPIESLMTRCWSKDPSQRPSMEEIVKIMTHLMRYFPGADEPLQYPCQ
To be noted: read-out: Remaining protein kinase activity.

The target in the next experiment is T3, TSSK1 (Homo sapiens, UniProt Q9BXA7).
T3 sequence (Q9BXA7 1-367): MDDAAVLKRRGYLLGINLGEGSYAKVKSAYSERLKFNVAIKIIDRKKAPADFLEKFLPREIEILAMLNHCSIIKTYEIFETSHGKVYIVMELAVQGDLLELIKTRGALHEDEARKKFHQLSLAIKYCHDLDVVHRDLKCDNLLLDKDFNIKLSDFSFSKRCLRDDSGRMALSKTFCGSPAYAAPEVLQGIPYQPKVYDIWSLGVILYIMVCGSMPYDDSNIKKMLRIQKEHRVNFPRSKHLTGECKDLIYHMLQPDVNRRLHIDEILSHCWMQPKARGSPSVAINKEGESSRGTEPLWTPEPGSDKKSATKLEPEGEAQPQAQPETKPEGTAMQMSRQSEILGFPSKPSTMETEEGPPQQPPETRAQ
To be noted: read-out: Remaining protein kinase activity.

The target of the next experiment is p38a MAPK (Homo sapiens, UniProt Q16539).
Sequence of p38a MAPK (Q16539 whole entry): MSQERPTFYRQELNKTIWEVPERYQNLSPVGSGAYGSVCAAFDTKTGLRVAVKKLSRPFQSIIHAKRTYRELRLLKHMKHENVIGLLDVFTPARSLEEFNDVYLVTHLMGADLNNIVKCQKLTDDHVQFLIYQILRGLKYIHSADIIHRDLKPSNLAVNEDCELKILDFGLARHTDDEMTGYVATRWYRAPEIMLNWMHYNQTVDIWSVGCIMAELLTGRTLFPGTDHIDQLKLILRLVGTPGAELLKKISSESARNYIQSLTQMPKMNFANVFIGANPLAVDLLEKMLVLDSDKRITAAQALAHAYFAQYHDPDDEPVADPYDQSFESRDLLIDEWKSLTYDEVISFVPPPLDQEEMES
For the next experiment, the target named is T4, DDR2 (Homo sapiens, UniProt Q16832).
T4 sequence (Q16832 22-855): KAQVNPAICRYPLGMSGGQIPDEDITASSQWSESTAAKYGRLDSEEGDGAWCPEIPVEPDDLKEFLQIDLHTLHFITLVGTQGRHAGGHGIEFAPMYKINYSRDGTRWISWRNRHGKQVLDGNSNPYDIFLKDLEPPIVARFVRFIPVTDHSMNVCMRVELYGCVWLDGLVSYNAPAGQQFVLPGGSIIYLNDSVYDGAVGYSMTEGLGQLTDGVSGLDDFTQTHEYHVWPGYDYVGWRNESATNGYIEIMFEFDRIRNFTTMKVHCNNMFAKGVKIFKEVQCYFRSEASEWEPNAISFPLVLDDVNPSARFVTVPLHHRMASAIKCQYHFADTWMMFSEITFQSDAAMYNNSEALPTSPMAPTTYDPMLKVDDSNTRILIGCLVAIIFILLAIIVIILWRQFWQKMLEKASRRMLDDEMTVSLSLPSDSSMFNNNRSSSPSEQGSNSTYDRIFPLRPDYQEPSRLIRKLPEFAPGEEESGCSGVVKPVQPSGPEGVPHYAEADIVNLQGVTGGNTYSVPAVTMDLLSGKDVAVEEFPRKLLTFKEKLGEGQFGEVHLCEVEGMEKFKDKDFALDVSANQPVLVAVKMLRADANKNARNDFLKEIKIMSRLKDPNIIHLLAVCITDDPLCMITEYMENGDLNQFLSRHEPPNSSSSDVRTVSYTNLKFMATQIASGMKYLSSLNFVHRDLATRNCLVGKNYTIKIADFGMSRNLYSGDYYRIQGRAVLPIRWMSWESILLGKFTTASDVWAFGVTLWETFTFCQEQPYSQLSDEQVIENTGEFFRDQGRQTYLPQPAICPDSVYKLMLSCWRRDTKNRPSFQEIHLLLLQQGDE
To be noted: read-out: Remaining protein kinase activity.

In a further experiment the target is Src (Homo sapiens, UniProt P12931). To be noted: read-out: Remaining protein kinase activity.
Sequence of Src (P12931 whole entry): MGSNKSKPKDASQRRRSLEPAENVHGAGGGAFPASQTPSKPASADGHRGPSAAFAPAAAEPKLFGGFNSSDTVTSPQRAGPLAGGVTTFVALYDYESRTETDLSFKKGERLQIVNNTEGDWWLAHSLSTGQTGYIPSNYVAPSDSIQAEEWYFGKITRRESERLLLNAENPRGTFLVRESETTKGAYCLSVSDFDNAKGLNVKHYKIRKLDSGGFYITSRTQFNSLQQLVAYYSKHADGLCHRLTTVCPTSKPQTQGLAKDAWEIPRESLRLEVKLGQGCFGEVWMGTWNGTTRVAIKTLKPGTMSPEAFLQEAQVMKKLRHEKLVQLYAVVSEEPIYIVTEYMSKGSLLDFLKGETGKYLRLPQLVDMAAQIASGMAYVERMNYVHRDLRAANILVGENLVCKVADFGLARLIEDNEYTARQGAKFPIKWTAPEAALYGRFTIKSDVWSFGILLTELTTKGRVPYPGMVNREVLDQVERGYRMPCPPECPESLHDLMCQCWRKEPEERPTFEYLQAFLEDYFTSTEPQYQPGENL

The term remaining activity denotes the signal under treatment as a percentage of the control signal.

Sequence of S6K1 (P23443 whole entry, species assumed): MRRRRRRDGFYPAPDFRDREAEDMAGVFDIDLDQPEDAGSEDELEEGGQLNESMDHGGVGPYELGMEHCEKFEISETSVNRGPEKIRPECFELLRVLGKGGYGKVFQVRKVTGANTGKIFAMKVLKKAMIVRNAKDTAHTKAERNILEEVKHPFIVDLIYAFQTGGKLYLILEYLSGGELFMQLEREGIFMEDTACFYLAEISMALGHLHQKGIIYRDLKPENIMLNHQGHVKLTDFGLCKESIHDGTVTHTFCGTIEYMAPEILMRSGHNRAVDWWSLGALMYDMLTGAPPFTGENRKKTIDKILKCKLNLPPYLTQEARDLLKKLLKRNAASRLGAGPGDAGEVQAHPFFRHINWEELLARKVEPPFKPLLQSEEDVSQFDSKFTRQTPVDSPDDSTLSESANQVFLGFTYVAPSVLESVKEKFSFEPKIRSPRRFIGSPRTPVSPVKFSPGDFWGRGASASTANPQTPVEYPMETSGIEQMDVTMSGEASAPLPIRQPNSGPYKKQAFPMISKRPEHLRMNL
Sequence of PAK6 (Q9NQU5 whole entry): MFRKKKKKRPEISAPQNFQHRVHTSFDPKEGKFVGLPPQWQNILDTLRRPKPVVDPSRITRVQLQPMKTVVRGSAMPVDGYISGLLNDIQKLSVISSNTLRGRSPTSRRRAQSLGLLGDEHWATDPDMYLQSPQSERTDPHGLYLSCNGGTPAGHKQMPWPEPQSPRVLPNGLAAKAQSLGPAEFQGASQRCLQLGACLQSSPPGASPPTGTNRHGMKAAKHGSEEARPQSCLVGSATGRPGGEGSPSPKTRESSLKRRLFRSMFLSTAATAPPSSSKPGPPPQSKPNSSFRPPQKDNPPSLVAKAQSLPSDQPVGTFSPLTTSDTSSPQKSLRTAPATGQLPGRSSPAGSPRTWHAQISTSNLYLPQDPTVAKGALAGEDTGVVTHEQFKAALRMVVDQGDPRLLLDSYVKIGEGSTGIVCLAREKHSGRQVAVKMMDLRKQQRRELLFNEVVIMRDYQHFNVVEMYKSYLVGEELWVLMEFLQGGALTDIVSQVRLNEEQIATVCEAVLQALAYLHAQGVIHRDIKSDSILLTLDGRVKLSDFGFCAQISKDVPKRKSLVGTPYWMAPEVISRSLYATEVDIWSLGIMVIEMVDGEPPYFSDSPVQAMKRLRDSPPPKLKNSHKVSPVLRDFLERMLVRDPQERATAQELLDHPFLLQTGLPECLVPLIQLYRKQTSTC
Sequence of MPSK1 (O75716 whole entry): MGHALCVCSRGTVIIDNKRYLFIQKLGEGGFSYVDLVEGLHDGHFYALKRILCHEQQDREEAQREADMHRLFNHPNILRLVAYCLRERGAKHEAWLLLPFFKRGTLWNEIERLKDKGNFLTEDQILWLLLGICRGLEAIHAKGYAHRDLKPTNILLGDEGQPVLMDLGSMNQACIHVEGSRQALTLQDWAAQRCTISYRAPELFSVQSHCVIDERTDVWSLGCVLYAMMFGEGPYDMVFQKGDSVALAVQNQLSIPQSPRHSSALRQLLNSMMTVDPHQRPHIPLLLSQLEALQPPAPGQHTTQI

With `COc1ccc2sc(-c3cncc(NC(C)=O)c3)nc2c1` [PST-001, N-(5-(5-Methoxybenzo[d]thiazol-2-yl)pyridin-3-yl)acetamide], the remaining activity at 1 µM at MPSK1 was found to be 121%; on PRK2, 102%; on S6K1, 113%; at PRAK, 114%; at PAK6, 112%; at TAK1, 48%. The results for the remaining activity at 1 µM on TSSK1, on DDR2 and at Src were 124%, 98% and 100%, respectively. Besides, the remaining activity at 100 µM came out at 113% at MPSK1; 101% on PRK2; 81% at S6K1; 116% at PRAK; 113% at PAK6; 63% at TAK1. The remaining activity at 100 µM at TSSK1 came to 114%; at DDR2 it was 80%; on Src, 106%. In addition, the “Remaining protein kinase activity” value on p38a MAPK (1 μM) is 110%; on p38a MAPK (100 μM), 106%.

In the case of `COc1ccc2sc(-c3cncc(N)c3)nc2c1` [compound 1, 5-(5-Methoxybenzo[d]thiazol-2-yl)pyridin-3-amine], the remaining activity at 1 µM at MPSK1 (MPSK1, 1 μM) is 110%; at PRK2 (PRK2, 1 μM), 103%; at S6K1 (S6K1, 1 μM), 118%; at PRAK (PRAK, 1 μM), 128%; at PAK6 (PAK6, 1 μM) it was 108%; at TAK1 (TAK1, 1 μM) it was 70%. Moreover, the remaining activity at 1 µM turned out to be 107% at TSSK1 (TSSK1, 1 μM); 107% at DDR2 (DDR2, 1 μM); 123% at Src (Src, 1 μM). In addition, the remaining activity at 100 µM turned out to be 106% on MPSK1 (MPSK1, 100 μM); 74% on PRK2 (PRK2, 100 μM); 58% on S6K1 (S6K1, 100 μM); 36% on PRAK (PRAK, 100 μM); 80% on PAK6 (PAK6, 100 μM); 6% at TAK1 (TAK1, 100 μM). The remaining activity at 100 µM is 70% at TSSK1 (TSSK1, 100 μM); 49% on DDR2 (DDR2, 100 μM); 42% at Src (Src, 100 μM). For the same molecule, the “Remaining protein kinase activity” value on p38a MAPK (1 μM) was 103%; at p38a MAPK (100 μM), 96%.
